Measured values as given in PMC10609854 (Pharmaceuticals, 2023).
Structures can show the parent of a compound that is named as a salt.

Columns and labels:
[1] = test system: formalin-induced pain; test: formalin test; assay type: in vivo, mice; details: mice; for duration of the nociceptive response, acute phase of the formalin test: i.p. 30 min before test, 0–5 min after formalin; for influence on the analgesic effect of E153, late phase of the formalin test: 15 mg/kg given 10 min before E153 (15 mg/kg i.p.); for duration of the nociceptive response, late phase of the formalin test: single administration alone, 15 mg/kg
Procedure: The mice received an intraperitoneal (i.p.) injection of either the test compound or a control solution. After 30 min, a 20 μL injection of a 2.5% formalin solution was administered into the right hind paw. Right after the formalin injection, the animals were individually placed into glass containers and observed for the following 30 min. During specific time intervals (0–5 min, referred to as Phase I, and 15–30 min, referred to as Phase II, post-formalin injection), the time spent by the animals licking or biting the injected paw was recorded..

[2] = test system: histamine-induced pruritus; test: histamine-induced pruritus; assay type: in vivo; details: mice; for influence on the antipruritic activity of E153, histamine-induced pruritus: 15 mg/kg given 10 min before E153 (5 mg/kg i.p.)
Procedure: (§1) The area (around 2 cm^2) of the nape of mice was shaved at least 2 days prior to experiments. On the day of the experiment, each mouse was individually placed in plastic chambers (15 × 15 × 30 cm). After the 30 min period of habituation, the mice received an intradermal (i.d.) injection of histamine dihydrochloride (10 µmol/site), chloroquine (CQ, 200 µg/site), or SLIGRL-NH2 (40 nmol/site), which were dissolved in physiological saline and administrated at the constant volume of 20 μL. Immediately following the injection, scratching (series of movements considered as a single scratching bout usually consisted of three single scratches) of the injected site by the hind paw was counted for 60 min, 30 min, or 45 min after histamine, CQ, and SLIGRL-NH2 injection, respectively.

[3] = test system: CQ-induced pruritus; test: chloroquine (CQ)-induced pruritus; assay type: in vivo, mice; details: mice, 10 mg/kg i.p.; 30 min observation
Procedure: as §1

[4] = test system: SLIGRL-induced pruritus; test: SLIGRL-induced pruritus; assay type: in vivo; details: mice, 10 mg/kg i.p.; 45 min observation
Procedure: as §1

Compound | duration of the nociceptive response, acute phase of the formalin test [1] | influence on the antipruritic activity of E153, histamine-induced pruritus [2] | scratching behavior, histamine-induced pruritus ([2]; administered alone, 15 mg/kg) | influence on the analgesic effect of E153, late phase of the formalin test [1] | duration of the nociceptive response, late phase of the formalin test [1] | other results
Cc1cc(OCCN2CCOCC2)nn1-c1ccc2ccccc2c1.Cl [Compound S1RA, 4-[2-[[5-methyl-1-(2-naphthalenyl)1H-pyraol-3-yl]oxy]ethyl]-morpholine hydro-chloride] | lack of activity | – | – | – | – | activity in the late phase of the formalin test ([1]; 15 mg/kg i.p.): inactive; paw licking and biting behavior, late phase of the formalin test ([1]; 30 mg/kg i.p.): showed activity; nociceptive response, late phase of the formalin test, joint administration ([1]; JNJ 5207852 10 mg/kg + S1RA 30 mg/kg i.p.): did not affect the activity of the compounds
c1cc(OCCCN2CCCCC2)ccc1CN1CCCCC1 [JNJ 5207852, 1-[3-[4-(1-piperidinylmethyl)phenoxy]propyl]piperidine hydrochloride] | lack of activity | – | – | – | – | activity in the late phase of the formalin test ([1]; 10 mg/kg i.p.): inactive; paw licking and biting behavior, late phase of the formalin test ([1]; 15 and 30 mg/kg i.p.): significantly attenuated; nociceptive response, late phase of the formalin test, joint administration ([1]; JNJ 5207852 15 mg/kg + S1RA 15 mg/kg i.p., compared to saline): significantly stronger decrease in nociceptive response
Cl.O=C(OCCN1CCOCC1)C1(c2ccccc2)CCCCC1 [PRE-084, 2-[4-morpholinethyl]1-phenylcyclohexanecarboxylate hydrochloride] | – | significant decrease in E153 activity | did not alter animal scratching behavior | antagonized the effects of test compound | did not change | –
C[C@@H](N)Cc1c[nH]cn1 [RAMH, (R)-(-)-α-methylhistamine] | – | had no effect | did not alter animal scratching behavior | antagonized the effects of test compound | did not change | –
COc1ccc(CN(CCN(C)C)c2ccccn2)cc1 [pyrilamine, reference compound] | – | – | – | – | – | number of scratch bouts, CQ-induced pruritus [3]: not effective; scratching behavior, histamine-induced pruritus ([2]; i.p. 30 min before i.d. histamine): significantly reduced scratching behavior; scratch bouts, SLIGRL-induced pruritus [4]: not effective
